The record followed here is patent US10196401B2, “Spiro-lactam NMDA receptor modulators and uses thereof” (Aptinyx Inc., priority 2016, dated 2019).

SMILES strings stand for the structures.

In assay [1] the test system is Sprague Dawley rats. Put plainly: Bennett model of mechanical analgesia (paw withdrawal threshold). It is filed as in vivo, rat. Conditions: 150 mg/kg PO; tested 1 h, 24 hrs and 1 week post-dosing. How it is done: Bennett G J, Xie Y K, “A peripheral mononeuropathy in rat that produces disorders of pain sensation like those seen in man,” Pain 33:87-107, 1988. […] Vehicle animals receive the surgery and then receive vehicle rather than test compound. Animals were tested 1 hr, 24 h and 1 wk post-test compound or vehicle administration.
Male 2-3 month old Sprague Dawley rats were used. Harlan was the supplier for all studies. Rats were housed in Lucite cages with aspen wood chip bedding, maintained on a 12:12 light:dark cycle (lights on at 5 AM), and given ad libitum access to Purina lab chow (USA) and tap water throughout the study.
Rats were anesthetized using inhaled isoflurane (2.5%). Spared nerve injury surgery was performed as previously described (Bennett and Xie, 1988). An incision (˜1.5 cm in length) was made with a scalpel blade dorsally through skin on the right hindlimb, parallel and posterior to femur. Using a small pointed hemostat, the biceps femoris and gluteus superficialis muscles were separated. Using curved blunt forceps, the common sciatic nerve was isolated and exposed. For the mechanical analgesia studies, the whole sciatic nerve was ligated. Using hemostats/forceps and chromic gut (5-0), the nerve was loosely ligated with a square knot; 3 ligatures, 1 mm apart were placed on the nerve. […] For the thermal analgesia studies, the common peroneal and tibial branches of the sciatic nerve were ligated and cut, and the sural branch was spared. See Decosterd I, Woolf C J, “Spared nerve injury: an animal model of persistent peripheral neuropathic pain,” Pain 87:149-158, 2000. Testing occurred 1-2 weeks post-surgery.
During testing, rats were acclimated to the surface of a suspended wire mesh grid (1 cm×1 cm, with the wire being 0.3 cm in diameter) for 15-20 min. Starting from the smallest, each Von Frey filament was pressed perpendicularly to the plantar surface of the affected (ipsilateral) hindpaw until slightly bent and then held for 6 second. […]

Assay [2] concerns the target NMDAR2C (Homo sapiens, UniProt Q14957). The experiment in a line: Potentiation of [3H]MK-801 binding, NMDAR2C. More on the design: species or system rat. Conditions: NMDAR2C binding profile; for % 1 mM Glycine: relative to 1 mM glycine.
The target in assay [3] is NMDAR2A (Homo sapiens, UniProt Q12879). Put plainly: Potentiation of [3H]MK-801 binding, NMDAR2A. More on the design: species or system rat. Conditions: NMDAR2A binding profile; for % 1 mM Glycine: relative to 1 mM glycine. How it is done: (§1) Assays were conducted as described by Moskal et al., “GLYX-13: a monoclonal antibody-derived peptide that acts as an N-rnethyl-D-aspartate receptor modulator,” Neuropharmacology, 49, 1077-87, 2005. The potentiation of [^3H]MK-801 binding (5 nrM; 22.5 Ci/mmol) to well washed rat cortical membranes (200 μg) was measured under non-equilibrium conditions (15 min @ 25° C.) in the presence of increasing concentrations of Compound A.
(§2) Assays were conducted as described above in Example 5, by Moskal et al. (2005).

The target of assay [4] is NMDAR2B (Homo sapiens, UniProt Q13224). The experiment in a line: Potentiation of [3H]MK-801 binding, NMDAR2B. Set-up: species or system rat. Conditions: NMDAR2B binding profile; for % 1 mM Glycine: relative to 1 mM glycine.
Sequence of NMDAR2B (Q13224 27-1484, species assumed, other chains not shown): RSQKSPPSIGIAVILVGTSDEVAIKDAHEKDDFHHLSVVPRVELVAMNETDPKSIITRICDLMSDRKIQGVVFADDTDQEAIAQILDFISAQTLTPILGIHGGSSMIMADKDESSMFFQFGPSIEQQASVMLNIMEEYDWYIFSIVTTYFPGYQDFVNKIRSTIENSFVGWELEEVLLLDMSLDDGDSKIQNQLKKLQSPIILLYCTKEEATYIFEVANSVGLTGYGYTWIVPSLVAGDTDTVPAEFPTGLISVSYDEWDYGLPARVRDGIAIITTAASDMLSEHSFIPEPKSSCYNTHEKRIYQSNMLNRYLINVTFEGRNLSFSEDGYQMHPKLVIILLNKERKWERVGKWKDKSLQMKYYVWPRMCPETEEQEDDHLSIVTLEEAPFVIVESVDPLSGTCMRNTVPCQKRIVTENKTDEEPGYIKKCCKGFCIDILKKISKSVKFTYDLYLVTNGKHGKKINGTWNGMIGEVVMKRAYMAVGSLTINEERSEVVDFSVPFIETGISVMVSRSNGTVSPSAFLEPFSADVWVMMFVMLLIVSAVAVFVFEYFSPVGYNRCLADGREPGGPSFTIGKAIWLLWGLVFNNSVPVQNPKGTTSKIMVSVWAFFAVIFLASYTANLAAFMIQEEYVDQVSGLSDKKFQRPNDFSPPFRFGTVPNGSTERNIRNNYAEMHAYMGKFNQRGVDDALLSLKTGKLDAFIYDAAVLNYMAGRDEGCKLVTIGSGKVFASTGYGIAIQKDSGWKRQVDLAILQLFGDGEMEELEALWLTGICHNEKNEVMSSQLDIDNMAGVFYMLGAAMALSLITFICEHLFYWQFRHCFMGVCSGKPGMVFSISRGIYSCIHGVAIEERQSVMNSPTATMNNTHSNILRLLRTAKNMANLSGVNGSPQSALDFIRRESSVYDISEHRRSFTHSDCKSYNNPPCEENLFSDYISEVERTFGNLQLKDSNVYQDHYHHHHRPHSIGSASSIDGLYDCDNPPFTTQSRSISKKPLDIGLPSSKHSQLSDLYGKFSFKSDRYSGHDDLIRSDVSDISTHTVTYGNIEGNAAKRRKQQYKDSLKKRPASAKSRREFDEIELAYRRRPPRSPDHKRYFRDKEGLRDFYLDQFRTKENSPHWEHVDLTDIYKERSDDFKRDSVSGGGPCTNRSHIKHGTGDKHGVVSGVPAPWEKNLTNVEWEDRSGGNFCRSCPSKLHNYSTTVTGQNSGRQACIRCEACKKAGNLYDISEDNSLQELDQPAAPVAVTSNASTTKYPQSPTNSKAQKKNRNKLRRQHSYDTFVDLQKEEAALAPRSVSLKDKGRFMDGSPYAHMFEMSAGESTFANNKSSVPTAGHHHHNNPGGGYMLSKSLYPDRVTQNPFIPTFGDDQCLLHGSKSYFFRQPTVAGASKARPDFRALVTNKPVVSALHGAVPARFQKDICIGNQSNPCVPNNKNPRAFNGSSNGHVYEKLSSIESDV
Assay [5] deals with NMDAR2D (Homo sapiens, UniProt O15399). The experiment in a line: Potentiation of [3H]MK-801 binding, NMDAR2D. More on the design: species or system rat. Conditions: NMDAR2D binding profile; for % 1 mM Glycine: relative to 1 mM glycine. On the procedure:
as §1, §2

Sequence of NMDAR2D (O15399 28-1336, species assumed, other chains not shown): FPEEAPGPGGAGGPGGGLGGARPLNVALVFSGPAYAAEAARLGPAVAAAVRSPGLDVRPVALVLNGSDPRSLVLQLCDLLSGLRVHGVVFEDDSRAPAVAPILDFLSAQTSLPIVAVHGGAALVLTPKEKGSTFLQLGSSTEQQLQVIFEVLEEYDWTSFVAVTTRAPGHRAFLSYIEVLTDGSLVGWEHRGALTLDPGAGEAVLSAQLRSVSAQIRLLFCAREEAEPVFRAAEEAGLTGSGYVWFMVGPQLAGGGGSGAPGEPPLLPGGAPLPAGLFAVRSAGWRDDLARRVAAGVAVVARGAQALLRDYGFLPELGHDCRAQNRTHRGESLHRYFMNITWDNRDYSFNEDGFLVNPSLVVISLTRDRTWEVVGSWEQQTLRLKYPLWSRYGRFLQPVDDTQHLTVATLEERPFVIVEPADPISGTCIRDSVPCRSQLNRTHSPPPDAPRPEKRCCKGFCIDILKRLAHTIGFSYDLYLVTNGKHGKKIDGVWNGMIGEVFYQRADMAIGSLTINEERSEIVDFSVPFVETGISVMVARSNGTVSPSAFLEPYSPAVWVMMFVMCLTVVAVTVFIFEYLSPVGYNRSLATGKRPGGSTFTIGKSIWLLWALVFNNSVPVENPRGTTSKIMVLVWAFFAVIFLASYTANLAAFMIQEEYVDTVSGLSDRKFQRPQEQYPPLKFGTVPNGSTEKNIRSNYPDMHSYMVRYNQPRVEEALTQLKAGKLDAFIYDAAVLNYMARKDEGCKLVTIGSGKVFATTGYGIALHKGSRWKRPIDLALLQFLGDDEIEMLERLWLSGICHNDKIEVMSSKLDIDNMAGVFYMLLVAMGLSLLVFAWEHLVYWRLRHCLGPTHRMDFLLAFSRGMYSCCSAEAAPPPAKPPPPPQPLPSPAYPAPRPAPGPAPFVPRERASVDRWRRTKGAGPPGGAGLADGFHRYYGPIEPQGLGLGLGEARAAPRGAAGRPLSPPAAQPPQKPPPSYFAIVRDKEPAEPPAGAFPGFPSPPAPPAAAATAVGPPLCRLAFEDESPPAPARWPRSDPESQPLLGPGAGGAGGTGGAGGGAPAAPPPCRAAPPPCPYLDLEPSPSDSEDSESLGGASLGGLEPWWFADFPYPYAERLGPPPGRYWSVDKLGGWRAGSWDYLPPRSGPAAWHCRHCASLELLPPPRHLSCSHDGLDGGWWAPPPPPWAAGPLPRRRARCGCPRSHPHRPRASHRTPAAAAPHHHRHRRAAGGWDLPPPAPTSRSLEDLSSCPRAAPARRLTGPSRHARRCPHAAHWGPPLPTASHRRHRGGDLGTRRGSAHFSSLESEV
Sequence of NMDAR2C (Q14957 20-1233, species assumed, other chains not shown): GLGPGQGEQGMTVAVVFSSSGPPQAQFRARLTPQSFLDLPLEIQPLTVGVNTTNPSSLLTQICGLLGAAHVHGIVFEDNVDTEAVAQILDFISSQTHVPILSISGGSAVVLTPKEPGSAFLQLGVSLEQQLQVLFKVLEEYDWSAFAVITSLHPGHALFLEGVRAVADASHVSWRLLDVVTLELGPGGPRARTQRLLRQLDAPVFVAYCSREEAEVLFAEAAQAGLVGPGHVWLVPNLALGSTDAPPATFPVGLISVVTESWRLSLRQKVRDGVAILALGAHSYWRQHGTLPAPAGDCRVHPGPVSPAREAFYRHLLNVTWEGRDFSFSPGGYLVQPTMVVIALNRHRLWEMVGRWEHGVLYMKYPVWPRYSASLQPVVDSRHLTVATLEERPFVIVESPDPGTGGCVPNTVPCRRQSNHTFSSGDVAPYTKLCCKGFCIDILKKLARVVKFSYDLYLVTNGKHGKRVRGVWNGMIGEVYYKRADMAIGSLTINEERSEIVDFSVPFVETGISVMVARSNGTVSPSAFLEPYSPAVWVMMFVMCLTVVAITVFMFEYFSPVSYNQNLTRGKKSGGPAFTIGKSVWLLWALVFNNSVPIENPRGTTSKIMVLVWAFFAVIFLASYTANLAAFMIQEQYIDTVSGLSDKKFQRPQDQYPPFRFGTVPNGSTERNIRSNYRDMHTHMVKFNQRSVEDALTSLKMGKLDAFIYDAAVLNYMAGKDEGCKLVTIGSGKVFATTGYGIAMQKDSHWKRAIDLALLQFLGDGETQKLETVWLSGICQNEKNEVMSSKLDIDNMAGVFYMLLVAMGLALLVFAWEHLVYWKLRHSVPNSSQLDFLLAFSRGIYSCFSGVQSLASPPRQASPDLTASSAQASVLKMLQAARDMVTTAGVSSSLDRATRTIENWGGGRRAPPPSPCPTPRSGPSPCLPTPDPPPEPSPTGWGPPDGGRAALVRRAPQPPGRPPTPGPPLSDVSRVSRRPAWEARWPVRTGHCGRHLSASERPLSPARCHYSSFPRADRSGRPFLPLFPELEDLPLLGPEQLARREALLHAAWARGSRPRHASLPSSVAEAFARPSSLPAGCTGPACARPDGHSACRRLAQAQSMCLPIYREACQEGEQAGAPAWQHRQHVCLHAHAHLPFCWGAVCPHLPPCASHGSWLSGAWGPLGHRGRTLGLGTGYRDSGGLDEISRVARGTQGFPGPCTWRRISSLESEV

`NCC1(CC(=O)O)CCCCC1` [gabapentin, reference compound]: the “analgesic effect in the Bennett model” value in assay [1] is given as “only produced an analgesic effect 1 h post-dosing”.

For the molecule `CC(C)C(=O)N1CCC[C@@]12CN([C@H](C(N)=O)[C@@H](C)O)C2=O` [Compound Z, (2S,3R)-3-hydroxy-2-((S)-5-isobutyryl-1-oxo-2,5-diazaspiro[3.4]octan-2-yl)butanamide], the Conclusion entry in assay [2] is “WT2C agonist”; in assay [3], “WT2A agonist”; in assay [4], “WT2B agonist”; in assay [5] it was “agonist”. In addition, the “% 1 mM Glycine” value came to 47.76% in assay [2], 42.5% in assay [3], 70.49% in assay [4] and 65.32% in assay [5].

For the molecule `C[C@@H](O)[C@@H](C(N)=O)N1C[C@@]2(CCCN2C(=O)OC(C)(C)C)C1=O` [Compound X, tert-butyl (S)-2-((2S,3R)-1-amino-3-hydroxy-1-oxobutan-2-yl)-1-oxo-2,5-diazaspiro[3.4]octane-5-carboxylate], the Conclusion entry in assay [2] is reported as “WT2C agonist”; in assay [3] it was “WT2A agonist”; in assay [4], “WT2B agonist”; in assay [5], “agonist”. For the same molecule, the “% 1 mM Glycine” value in assay [2] was 59.73%; in assay [3], 41.04%; in assay [4], 59.55%; in assay [5], 93.58%.

Regarding `C[C@@H](O)[C@@H](C(N)=O)N1C[C@]2(CCCN2C(=O)OC(C)(C)C)C1=O` [Compound W, tert-butyl (R)-2-((2S,3R)-1-amino-3-hydroxy-1-oxobutan-2-yl)-1-oxo-2,5-diazaspiro[3.4]octane-5-carboxylate], the Conclusion entry in assay [2] is “WT2C agonist”; in assay [3], “WT2A agonist”; in assay [4], “WT2B agonist”; in assay [5], “agonist”. Further, the “% 1 mM Glycine” value was 67.5% in assay [2], 18.33% in assay [3], 53.09% in assay [4] and 66.72% in assay [5].

As to `CC(C)C(=O)N1CCC[C@]12CN([C@H](C(N)=O)[C@@H](C)O)C2=O` [Compound Y, (2S,3R)-3-hydroxy-2-((R)-5-isobutyryl-1-oxo-2,5-diazaspiro[3.4]octan-2-yl)butanamide], the Conclusion entry is given as “WT2C agonist” in assay [2], “WT2A agonist” in assay [3], “WT2B agonist” in assay [4] and “agonist” in assay [5]. In addition, the “% 1 mM Glycine” value in assay [2] stood at 64.24%; in assay [3], 61.76%; in assay [4], 70.74%; in assay [5], 54.85%.
